Test results published in PubChem BioAssay (NCI).
Several values for one entry are separate records, joined by “and”; a condition that tells them apart may be missing. Equal values may be shown once.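 Exposure lasted 48 hours, with cells grown in 96-well plates and compounds tested at five concentrations. GI50 marks 50% less growth. TGI denotes the concentration required for complete inhibition of growth.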

Legend:
Assay in all cases: NCI tumour cell line growth inhibition, 48 h
[1] = tested on: HOP-18 NSCLC
[2] = tested on: RXF-631 renal
[3] = tested on: LXFL 529 NSCLC
[4] = tested on: SNB-78 CNS
[5] = tested on: BT-549 breast
[6] = tested on: MDA-N
[7] = tested on: T-47D breast
[8] = tested on: DMS 114 small cell lung
[9] = tested on: P388 leukemia
[10] = tested on: P388/ADR leukemia
[11] = tested on: SN12K1 renal

Row | Structure (SMILES) | TGI [1] | TGI [3] | TGI [4] | TGI [8] | also measured
1 | O=S1(=O)c2ccccc2NC(c2ccc3ccccc3c2)CC1c1ccccc1F (centres undefined) | 56.1 µM | – | – | – | TGI [2]: > 100 µM
2 | O=CC[C@H]1C(=O)C[C@@H]2CCC[C@@H]21 | – | > 100 µM | > 100 µM | – | –
3 | CC[C@@]1(O)C[C@H](OC2CC(N(C)C)C(O)C(C)O2)c2c(O)c3c(c(O)c2[C@H]1OC1CC(N(C)C)C(O)C(C)O1)C(=O)c1cccc(O)c1C3=O (some centres undefined) | – | – | – | – | GI50 [5]: < 0.01 µM; TGI [5]: 0.293 µM and 0.102 µM; GI50 [6]: < 0.01 µM; TGI [6]: 0.156 µM and 0.113 µM; GI50 [7]: < 0.01 µM; TGI [7]: 0.0379 µM
4 | Nc1ccccc1SC(C[N+](=O)[O-])c1ccc2c(c1)OCO2 (centres undefined) | – | – | – | – | TGI [5]: 15.2 µM; TGI [6]: 4.63 µM; TGI [7]: 25.8 µM
5 | Clc1cc2nsnc2c(Cl)n1 | 31.7 µM | 27.8 µM | > 100 µM | 33.5 µM | –
6 | O=C1/C(=C/c2ccccc2)CN(C(=O)C(Cl)(Cl)Cl)C/C1=C\c1ccccc1 | 9.6 µM | 3.38 µM | 7.54 µM | 3.19 µM | –
7 | CC1(c2ccc(F)cc2)C(C#N)C(=O)NC(=O)C1C#N (centres undefined) | – | > 100 µM | – | > 100 µM | TGI [2]: > 100 µM
8 | CNS(=O)(=O)NNS(=O)(=O)c1ccc2ccccc2c1 | > 100 µM | > 100 µM | > 100 µM | > 100 µM | –
9 | c1ccc2cc(-c3cc(-c4cc(-c5ccc6ccccc6c5)on4)no3)ccc2c1 | – | – | – | – | TGI [5]: > 100 µM; TGI [6]: > 100 µM; TGI [7]: > 100 µM
10 | CCOC(=O)C1=C(C)NC(=S)NC1c1ccccc1 (centres undefined) | 98.4 µM | > 100 µM | > 100 µM | > 57.2 µM | TGI [2]: > 100 µM
11 | O=C(N/C(=C\c1ccc(/C=C(\NC(=O)c2ccccc2)c2nc3cc([N+](=O)[O-])ccc3[nH]2)cc1)c1nc2cc([N+](=O)[O-])ccc2[nH]1)c1ccccc1 | > 100 µM | > 100 µM | > 100 µM | > 100 µM | TGI [2]: > 100 µM
12 | O=C(/C=C/c1ccccc1)NC1C=Nc2ccc(Cl)cc2NC1=O (centres undefined) | > 100 µM | > 100 µM | > 100 µM | 30.4 µM | TGI [2]: > 100 µM
13 | COc1cc2c(cc1OC)-c1c3cc(O)ccc3nn[n+]1CC2 | > 100 µM | > 100 µM | > 100 µM | > 100 µM | –
14 | CC(=O)NNc1nc(C)c(C(=O)NNC(=O)C(=O)Nc2ccc(Cl)cc2)s1 | – | > 100 µM | > 100 µM | – | –
15 | CCCCCCCCCCCOc1ccc(C(=O)C(=O)c2ccc(OCCCCCCCCCCC)c(OCCCCCCCCCCC)c2)cc1OCCCCCCCCCCC | – | > 100 µM | > 100 µM | > 100 µM | –
16 | COC(CN1C(=O)c2cccc3cccc(c23)C1=O)OC | > 100 µM | > 100 µM | > 100 µM | > 100 µM | –
17 | O=C1C=C(Cl)C(=O)C(c2ccc(Cl)cc2)=C1 | – | – | – | – | TGI [5]: 46 µM; TGI [6]: 27.5 µM; TGI [7]: 84.4 µM
18 | CCOC(=O)[C@]1(OC(C)=O)C[C@H](OC(C)=O)[C@@H](C(F)COP(=O)(OCc2ccccc2)OCc2ccccc2)O1 (some centres undefined) | – | – | – | – | TGI [5]: > 100 µM; TGI [6]: > 100 µM; GI50 [7]: 34.2 µM and > 100 µM; TGI [7]: 93.1 µM and > 100 µM
19 | N#CCCN(CCC#N)c1ccc(/C=C2\N=C(c3cc([N+](=O)[O-])ccc3Cl)OC2=O)cc1 | – | 49.3 µM | – | 47.9 µM | –
20 | O=C1C2C(C(=O)N1OS(=O)(=O)c1ccccc1)N(Cc1ccccc1)C(=O)N2Cc1ccccc1 (centres undefined) | – | > 100 µM | > 100 µM | > 100 µM | TGI [2]: > 100 µM
21 | O=C(O)CSc1ccc([N+](=O)[O-])cc1[N+](=O)[O-] | – | – | – | – | TGI [5]: > 100 µM; TGI [6]: > 100 µM; TGI [7]: > 100 µM
22 | CN(C)CC[N+]1=Nc2cccc3cccc(c23)N1 | > 100 µM | > 100 µM | > 100 µM | > 100 µM | TGI [2]: > 100 µM
23 | CN1C(=O)C(C)(C)C2(SC(C)(C)C2(C)C)N(C)C1=S (centres undefined) | > 100 µM | > 100 µM | > 100 µM | > 100 µM | –
24 | CCCCCCCCCCCCCCCCCC(CCCCCCCCCCCCCCCCC)OP(=O)(O)O | > 100 µM | > 100 µM | > 100 µM | > 100 µM | –
25 | Cc1cc(C)nc(NS(=O)(=O)c2ccc(NC(=O)c3ccc(Cl)c4c(Nc5ccc(S(=O)(=O)Nc6nc(C)cc(C)n6)cc5)c5ccccc5nc34)cc2)n1 | 6.53 µM | 61.2 µM | > 100 µM | 8.54 µM | TGI [2]: > 100 µM
26 | Cn1cc(C2=C(c3cn(C)c4ncccc34)C(=O)NC2=O)c2ccccc21 | – | – | – | – | GI50 [5]: 6.97 µM; TGI [5]: 22.2 µM; GI50 [7]: 7.56 µM; TGI [7]: > 23.5 µM
27 | O=CN/C=C/c1cc(O)ccc1O | > 56.8 µM | 23.9 µM | 44.3 µM | 31.8 µM | TGI [9]: 5.2 µM; TGI [10]: 4.14 µM; TGI [11]: 32.4 µM
